Measured values as given in patent publication US20250163048A1 (Tango Therapeutics, Inc., priority 2022, published 2025).
Like-named read-outs stand apart in the source and are kept apart here.

Columns and labels:
MTAP-deleted cell line = experiment: viability assay for the MTAP-deleted cell line; assay type: cell-based; settings: Homo sapiens, HAP1, viability assay
[1] = system: HAP1 MTAP-intact cell line; experiment: SDMA in-cell western assay, HAP1 MTAP-intact; settings: Homo sapiens
[2] = system: HAP1 MTAP-deleted cell line; experiment: SDMA in-cell western assay, HAP1 MTAP-deleted; settings: for IC50 / IC90: Homo sapiens; for IC50: HAP1, read-out: Hap1 MTAP deleted IC50, SDMA in-cell western, HAP1 MTAP-deleted cell line; for IC90: HAP1, read-out: Hap1 MTAP deleted IC90, SDMA in-cell western, HAP1 MTAP-deleted cell line; for Hap1 MTAP intact/deleted ratio: IC50 ratio between HAP1 MTAP-intact and HAP1 MTAP-deleted cell line, SDMA in-cell western
[3] = HAP1, read-out: Hap1 MTAP intact IC50, SDMA in-cell western, HAP1 MTAP-intact cell line

IC50 [1, 3] [nM] | IC50 [2] [nM] | IC90 [2] [nM] | SMILES | IC50 (MTAP-deleted cell line) [nM] | Hap1 MTAP intact/deleted ratio [2] | IC50 ([1]; HAP1, read-out: Hap1 MTAP intact IC50) [nM]
> 50 | 5 to 50 | > 125 | C[C@H]1CC[C@H](c2ccc3nn(C4CN(C)C4)cc3c2)N(C(=O)C(=O)Nc2cncc3cn[nH]c23)C1 [Compound 66, 2-((2R,5S)-5-methyl-2-(2-(1-methylazetidin-3-yl)-2H-indazol-5-yl)piperidin-1-yl)-2-oxo-N-(1H-pyrazolo[4,3-c]pyridin-7-yl)acetamide] | 100 to 1000 | A (“A” indicates an IC50 ratio greater than or equal to 30 fold) | –
5 to 50 | < 5 | < 75 | C[C@H]1CC[C@H](c2ccc3sc(C4CC(C)(C)N(C)C(C)(C)C4)nc3c2)N(C(=O)C(=O)Nc2ccn3ccnc3c2)C1 [Compound 67, N-(imidazo[1,2-a]pyridin-7-yl)-2-((2R,5S)-5-methyl-2-(2-(1,2,2,6,6-pentamethylpiperidin-4-yl)benzo[d]thiazol-5-yl)piperidin-1-yl)-2-oxoacetamide] | < 100 | B (“B” indicates an IC50 ratio greater than or equal to 15 fold but lower than 30 fold) | –
5 to 50 | < 5 | < 75 | C[C@H]1CC[C@H](c2ccc3ccccc3c2)N(C(=O)C(=O)Nc2cnc(N)c3cn[nH]c23)C1 [Compound 79, N-(4-amino-1H-pyrazolo[4,3-c]pyridin-7-yl)-2-((2R,5S)-5-methyl-2-(naphthalen-2-yl)piperidin-1-yl)-2-oxoacetamide] | < 100 | A (“A” indicates an IC50 ratio greater than or equal to 30 fold) | –
> 50 | 5 to 50 | > 125 | C[C@H]1CC[C@H](c2ccc3sc(C4CCN(C)CC4)nc3c2)N(C(=O)C(=O)Nc2cnc3c(c2)C(=O)NC3)C1 [Compound 87, 2-oxo-N-(5-oxo-6,7-dihydropyrrolo[3,4-b]pyridin-3-yl)-2-[(2R,5S)-5-methyl-2-[2-(1-methyl-4-piperidyl)-1,3-benzothiazol-5-yl]-1-piperidyl]acetamide] | 100 to 1000 | A (“A” indicates an IC50 ratio greater than or equal to 30 fold) | –
5 to 50 | < 5 | < 75 | C[C@H]1CC[C@H](c2ccc3sc(C4CCN(C)CC4)nc3c2)N(C(=O)C(=O)Nc2ccn3ccnc3c2)C1 [Compound 91, N-(imidazo[1,2-a]pyridin-7-yl)-2-((2R,5S)-5-methyl-2-(2-(1-methylpiperidin-4-yl)benzo[d]thiazol-5-yl)piperidin-1-yl)-2-oxoacetamide] | < 100 | B (“B” indicates an IC50 ratio greater than or equal to 15 fold but lower than 30 fold) | –

More lines, now with the values behind:

SMILES | IC50 [1, 3] [nM] | IC50 [2] [nM] | IC90 [2] [nM] | IC50 (MTAP-deleted cell line) [nM] | Hap1 MTAP intact/deleted ratio [2] | IC50 ([1]; HAP1, read-out: Hap1 MTAP intact IC50) [nM]
C[C@H]1CC[C@H](c2ccc3sc([C@H]4C[C@H](N(C)C)C4)nc3c2)N(C(=O)C(=O)Nc2cncc3cn[nH]c23)C1 [Compound 64, 2-((2R,5S)-2-(2-(3-(dimethylamino)cyclobutyl)benzo[d]thiazol-5-yl)-5-methylpiperidin-1-yl)-2-oxo-N-(1H-pyrazolo[4,3-c]pyridin-7-yl)acetamide] | 5 to 50 | < 5 | < 75 | < 100 | B (“B” indicates an IC50 ratio greater than or equal to 15 fold but lower than 30 fold) | –
C[C@H]1CC[C@H](c2ccc3ncccc3c2)N(C(=O)C(=O)Nc2cnc(N)c3cn[nH]c23)C1 [Compound 83, N-(4-amino-1H-pyrazolo[4,3-c]pyridin-7-yl)-2-((2R,5S)-5-methyl-2-(quinolin-6-yl)piperidin-1-yl)-2-oxoacetamide] | 5 to 50 | < 5 | < 75 | < 100 | B (“B” indicates an IC50 ratio greater than or equal to 15 fold but lower than 30 fold) | –
C[C@H]1CC[C@H](c2ccc3sc([C@@H](C)CN4CCCC4)nc3c2)N(C(=O)C(=O)Nc2cncc3cn[nH]c23)C1 [Compound 86, 2-oxo-N-(1H-pyrazolo[4,3-c]pyridin-7-yl)-2-[(2R,5S)-5-methyl-2-[2-[(1S)-1-methyl-2-pyrrolidin-1-yl-ethyl]-1,3-benzothiazol-5-yl]-1-piperidyl]acetamide] | > 50 | < 5 | < 75 | < 100 | B (“B” indicates an IC50 ratio greater than or equal to 15 fold but lower than 30 fold) | –
C[C@H]1CC[C@H](c2ccc3cn(C4CCN(C)CC4)nc3c2)N(C(=O)C(=O)Nc2cncc3cn[nH]c23)C1 [Compound 90, 2-oxo-N-(1H-pyrazolo[4,3-c]pyridin-7-yl)-2-[(2R,5S)-5-methyl-2-[2-(1-methyl-4-piperidyl)indazol-6-yl]-1-piperidyl]acetamide] | 5 to 50 | < 5 | < 75 | < 100 | B (“B” indicates an IC50 ratio greater than or equal to 15 fold but lower than 30 fold) | –
C[C@H]1CC[C@H](c2ccc3sc(C4CC5(C4)CN(C)C5)nc3c2)N(C(=O)C(=O)Nc2cncc3cn[nH]c23)C1 [Compound 93, 2-((2R,5S)-5-methyl-2-(2-(2-methyl-2-azaspiro[3.3]heptan-6-yl)benzo[d]thiazol-5-yl)piperidin-1-yl)-2-oxo-N-(1H-pyrazolo[4,3-c]pyridin-7-yl)acetamide] | 5 to 50 | < 5 | < 75 | < 100 | C (“C” indicates an IC50 ratio of less than 15 fold) | –
C[C@H]1CC[C@H](c2ccc3sc(C4CCN(C)CC4)nc3c2)N(C(=O)C(=O)Nc2cncc3cn[nH]c23)C1 [Compound 94, 2-oxo-N-(1H-pyrazolo[4,3-c]pyridin-7-yl)-2-[(2R,5S)-5-methyl-2-[2-(1-methyl-4-piperidyl)-1,3-benzothiazol-5-yl]-1-piperidyl]acetamide] | – | < 5 | < 75 | < 100 | B (“B” indicates an IC50 ratio greater than or equal to 15 fold but lower than 30 fold) | 5 to 50
CC(CN1CCCC1)c1nc2cc([C@H]3CC[C@H](C)CN3C(=O)C(=O)Nc3cncc4cn[nH]c34)ccc2s1 (stereo partly drawn) [Compound 100, 2-((2R,5S)-5-methyl-2-(2-(1-(pyrrolidin-1-yl)propan-2-yl)benzo[d]thiazol-5-yl)piperidin-1-yl)-2-oxo-N-(1H-pyrazolo[4,3-c]pyridin-7-yl)acetamide] | > 50 | < 5 | < 75 | < 100 | A (“A” indicates an IC50 ratio greater than or equal to 30 fold) | –
C[C@H]1CC[C@H](c2ccc3sc(CCN4CCCC4)nc3c2)N(C(=O)C(=O)Nc2cncc3[nH]ncc23)C1 [Compound 102, 2-((2R,5S)-5-methyl-2-(2-(2-(pyrrolidin-1-yl)ethyl)benzo[d]thiazol-5-yl)piperidin-1-yl)-2-oxo-N-(1H-pyrazolo[3,4-c]pyridin-4-yl)acetamide] | > 50 | < 5 | < 75 | < 100 | A (“A” indicates an IC50 ratio greater than or equal to 30 fold) | –
